In US5942405A, “Therapeutic and screening methods using C3a receptor and C3a” (priority 1997, dated 1999):

Assays:
C3a Receptor = target: T1, C3a Receptor (Homo sapiens, UniProt Q16581); experiment: Electrophysiological response (Ca2+ mediated chloride currents, two electrode voltage clamp) of Xenopus oocytes injected with C3a Receptor cRNA; type: cell-based; design: cDNA encoding a complete orphan GPCR of 482 amino acids; expressed in transfected cells; host or cells: Xenopus laevis oocytes microinjected with cRNA, with or without U937 total RNA; details: for electrophysiological response of oocytes expressing C3a Receptor: oocytes co-injected with C3a Receptor cRNA (10 ng) and U937 RNA (25 ng), ligands 10 nM
T1 sequence (Q16581 1-482 F151C): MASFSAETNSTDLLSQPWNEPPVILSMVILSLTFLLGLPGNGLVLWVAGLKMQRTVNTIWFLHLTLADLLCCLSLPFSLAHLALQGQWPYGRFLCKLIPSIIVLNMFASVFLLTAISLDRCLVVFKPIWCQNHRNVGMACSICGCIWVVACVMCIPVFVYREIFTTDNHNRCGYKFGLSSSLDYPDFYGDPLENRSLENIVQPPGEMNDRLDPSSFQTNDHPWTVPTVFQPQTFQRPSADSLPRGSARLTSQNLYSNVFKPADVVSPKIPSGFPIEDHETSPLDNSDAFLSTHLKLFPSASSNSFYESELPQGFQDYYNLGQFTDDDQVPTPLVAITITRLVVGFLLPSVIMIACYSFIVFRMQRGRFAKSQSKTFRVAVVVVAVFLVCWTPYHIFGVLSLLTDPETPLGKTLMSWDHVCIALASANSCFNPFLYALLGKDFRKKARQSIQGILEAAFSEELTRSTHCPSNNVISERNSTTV
Experimental: (A) Electrophysiological response of Xenopus oocytes injected with cRNA for C3a Receptor (10 ng), total U937 RNA (25 ng), or a mixture of C3a Receptor (10 ng) and U937 RNA (25 ng) to 10 nM rC5a, 10 nM C3a analogue peptide, 10 nM platelet activating factor (PAF), 10 nM fMetLeuPhe. Inset, represents typical response of oocytes co-injected with C3a Receptor cRNA+U937 RNA to 10 nM C3a. (B) Electrophysiological response of oocytes injected with C5a-R cRNA (10 ng), U937 RNA (25 ng) or a mixture of C5a-R and U937 RNA, to 10 nM rC5a or 10 nM C3a analogue peptide. […] Calcium mobilization by Fura 2 loaded cells expressing C5a receptor (FIGS. 4A & 4C) or C3a Receptor (FIGS. 4B & 4D) in response to rC5a (10 nM, FIG. 4A or 100 nM, FIG. 4B) or C3a analogue peptide (1 uM, FIGS. 4C & 4D).
Capped cRNA transcripts were generated from linearized C3a Receptor and C5a-R plasmid DNA as previously described (Kumar, C. S., et al (1989) J. Biol. Chem. 264, 17939-17946) and suspended in sterile water at a concentration of 0.2 μg/μl. Ovarian lobes were surgically removed from adult female Xenopus laevis frogs and defolliculated Stage V oocytes were harvested by manual dissection (Smith, L. D., et al (1991) Methods in Cell Biology, 36, 45-54. Edited by B. K. Kay and H. B. Peng, Academic Press Inc., New York.). Oocytes were microinjected with C3a Receptor or C5a-R cRNA transcripts (10 ng/oocyte) with or without U937 total RNA (25 ng/oocyte) in a 50 nl volume using a Drummond microinjection apparatus and maintained in modified Barth's saline (Power, C. A., et al (1995) J. Biol. Chem., 270,19495-19500 ) at 18° C. Electrophysiological recordings from an average of 10 oocytes were made 48 h later at room temperature using the two electrode voltage clamp (Warner Instruments) technique. Membrane potentials were routinely clamped at -60 mV. Results represent average response determined in three separate experiments.
The chemotactic receptors for C5a and the fMLP-R have previously been functionally expressed in Xenopus laevis oocytes (Kroll, B., et al (1991) FEBS Lett. 291, 208-210; Murphy, P. M. & McDermott, D. (1991) J Biol. Chem. 266, 12560-12567; Murphy, P. M., Gallin, E. K., and Tiffany, H. L. (1990) J Immunol. 145, 2227-2234; Schultz, P., et al (1992) Cellular Signalling 4, 153-161) and, unlike all other GPCRs tested in this system, injection of cRNA for the cloned chemotactic receptors alone is insufficient to stimulate signal transduction in response to ligand binding (Kroll, B., et al (1991) FEBS Lett. 291, 208-210; Murphy, P. M. & McDermott, D. (1991) J Biol. Chem. 266, 12560-12567). Functional expression of both of these chemotactic receptors, as monitored by induction of Ca^2+ mediated chloride currents, requires the co-injection of a complimentary human factor which can be supplied by total RNA from myeloid or liver cells (Kroll, B., et al (1991) FEBS Lett. 291, 208-210; Murphy, P. M. & McDermott, D. (1991) J Biol. Chem. 266, 12560-12567). The co-factor is required for receptor-mediated signal transduction but not for expression of the C5a-R or fMLF-R on the surface of the oocytes (Murphy, P. M., et al (1990) J Immunol. 145, 2227-2234). […] Xenopus oocytes were used to functionally characterize C3a Receptor. […] Like the C5a-R and the fMLF-R, the response was dependent on the co-injection of a cofactor present in total HL-60 or U937 RNA. […] (FIG. 3B). Both the C5a-R as well as C3a Receptor elicited in oocytes a promiscuous response to the two anaphylatoxins.

C3a-R = details: cited from earlier work
guinea pig ileal tissue = details: C3a and C4a; cited from earlier work

## CSCC[C@H](NC=O)C(=O)N[C@@H](CC(C)C)C(=O)N[C@@H](Cc1ccccc1)C(=O)O [fMLF, fMetLeuPhe]
C3a Receptor
  electrophysiological response of oocytes expressing C3a Receptor: not

## CCCCCCCCCCCCCCCCOCC(COP(=O)([O-])OCC[N+](C)(C)C)OC(C)=O (centres unmarked) [platelet activating factor]
C3a Receptor
  electrophysiological response of oocytes expressing C3a Receptor: not

## pertussis toxin
C3a-R
  sensitivity of functional activity of the C3a-R to pertussis toxin: sensitive
C3a Receptor; response to C3a peptide, data not shown
  effect on response to the C3a peptide of oocytes co-injected with C3a Receptor and U937 RNA: abolished

B1: C4a: 74-77 amino acid anaphylatoxins C3a, C4a and C5a (protein, UniProt P0C0L4 680-756, looked up)
C4a anaphylatoxin: NVNFQKAINEKLGQYASPTAKRCCQDGVTRLPMMRSCEQRAARVQQPDCREPFLSCCQFAESLRKKSRDKGQAGLQR
modifications: C4a anaphylatoxin
notes: 74-77 amino acid anaphylatoxins C3a, C4a and C5a
Guinea pig ileal tissue
  cross desensitization of guinea pig ileal tissue: cross desensitize
